A short description of assay [1]: Selectivity for FLAG-tagged human mTOR over PI3Kalpha.
Assay [2] addresses Serine/threonine-protein kinase mTOR (Homo sapiens, UniProt P42345). The assay can be described thus: Inhibition of FLAG-tagged human mTOR by DELFIA method.
The test system of another assay is LNCaP. The assay is described as follows: Growth inhibition of human LNCAP cells after 3 days by MTS method. The class given is functional, cell-based. The following applies: 72 h.
For assay [3], the target named is Phosphatidylinositol 4,5-bisphosphate 3-kinase catalytic subunit alpha isoform (Homo sapiens, UniProt P42336). The assay can be described thus: Inhibition of PI3Kalpha.
Phosphatidylinositol 4,5-bisphosphate 3-kinase catalytic subunit alpha isoform, sequence (P42336 whole entry, canonical isoform): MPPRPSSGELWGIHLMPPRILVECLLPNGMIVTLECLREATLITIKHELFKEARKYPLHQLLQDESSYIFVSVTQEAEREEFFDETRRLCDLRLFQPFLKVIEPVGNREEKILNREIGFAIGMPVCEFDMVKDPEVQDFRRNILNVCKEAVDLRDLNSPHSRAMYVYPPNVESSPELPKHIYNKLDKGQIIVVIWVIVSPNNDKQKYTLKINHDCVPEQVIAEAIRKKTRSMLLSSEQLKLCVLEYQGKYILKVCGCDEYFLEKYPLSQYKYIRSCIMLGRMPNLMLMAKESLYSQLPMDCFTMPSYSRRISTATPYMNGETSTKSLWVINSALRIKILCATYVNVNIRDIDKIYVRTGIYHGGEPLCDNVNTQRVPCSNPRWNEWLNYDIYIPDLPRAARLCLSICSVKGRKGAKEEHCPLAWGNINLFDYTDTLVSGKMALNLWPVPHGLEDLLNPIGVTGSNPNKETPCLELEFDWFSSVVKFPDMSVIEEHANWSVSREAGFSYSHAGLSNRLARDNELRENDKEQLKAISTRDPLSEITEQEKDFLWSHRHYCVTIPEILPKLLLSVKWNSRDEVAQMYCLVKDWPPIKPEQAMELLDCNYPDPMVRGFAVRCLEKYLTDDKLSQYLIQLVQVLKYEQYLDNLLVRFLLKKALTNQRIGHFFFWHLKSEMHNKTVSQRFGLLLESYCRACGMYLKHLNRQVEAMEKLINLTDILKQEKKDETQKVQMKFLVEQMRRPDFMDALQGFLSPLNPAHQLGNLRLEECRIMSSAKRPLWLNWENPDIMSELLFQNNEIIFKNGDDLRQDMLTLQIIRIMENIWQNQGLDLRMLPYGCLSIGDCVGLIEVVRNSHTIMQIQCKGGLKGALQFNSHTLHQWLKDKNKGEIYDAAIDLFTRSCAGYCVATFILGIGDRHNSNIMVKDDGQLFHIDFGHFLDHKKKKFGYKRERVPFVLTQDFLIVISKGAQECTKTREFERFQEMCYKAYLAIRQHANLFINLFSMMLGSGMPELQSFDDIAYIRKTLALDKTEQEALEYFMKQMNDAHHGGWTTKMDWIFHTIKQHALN
The target of assay [4] is T1, Phosphatidylinositol 4,5-bisphosphate 3-kinase catalytic subunit delta isoform (Homo sapiens, UniProt O00329).
T1 sequence (O00329 whole entry): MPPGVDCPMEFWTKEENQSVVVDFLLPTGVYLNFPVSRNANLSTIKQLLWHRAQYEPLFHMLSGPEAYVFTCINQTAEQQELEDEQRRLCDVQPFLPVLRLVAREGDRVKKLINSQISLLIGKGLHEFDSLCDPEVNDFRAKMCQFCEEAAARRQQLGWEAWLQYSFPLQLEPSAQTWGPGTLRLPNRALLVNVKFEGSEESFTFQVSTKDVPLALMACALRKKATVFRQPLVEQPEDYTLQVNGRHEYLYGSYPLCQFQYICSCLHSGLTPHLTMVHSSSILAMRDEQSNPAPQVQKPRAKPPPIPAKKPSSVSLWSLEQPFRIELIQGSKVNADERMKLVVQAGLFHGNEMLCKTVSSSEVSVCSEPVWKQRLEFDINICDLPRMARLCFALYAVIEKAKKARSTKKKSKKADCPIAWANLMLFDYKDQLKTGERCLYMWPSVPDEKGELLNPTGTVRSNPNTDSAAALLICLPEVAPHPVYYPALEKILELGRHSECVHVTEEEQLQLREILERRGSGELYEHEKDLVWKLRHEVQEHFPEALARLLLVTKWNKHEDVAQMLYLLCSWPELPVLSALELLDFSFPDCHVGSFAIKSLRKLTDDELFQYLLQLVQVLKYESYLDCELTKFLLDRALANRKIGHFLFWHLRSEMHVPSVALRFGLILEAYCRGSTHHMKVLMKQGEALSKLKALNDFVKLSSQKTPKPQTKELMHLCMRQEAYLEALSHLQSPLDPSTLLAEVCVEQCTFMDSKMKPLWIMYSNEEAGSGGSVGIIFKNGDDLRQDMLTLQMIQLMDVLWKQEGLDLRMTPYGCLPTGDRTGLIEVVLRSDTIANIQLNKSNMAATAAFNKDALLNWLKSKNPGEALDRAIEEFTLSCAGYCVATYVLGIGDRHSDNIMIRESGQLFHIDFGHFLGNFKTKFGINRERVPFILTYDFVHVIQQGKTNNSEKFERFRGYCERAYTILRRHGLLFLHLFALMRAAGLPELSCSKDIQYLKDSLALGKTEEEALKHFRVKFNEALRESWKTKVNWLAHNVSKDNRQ
The assay is described as follows: Inhibition of PI3Kdelta.

The target of assay [5] is Phosphatidylinositol 4,5-bisphosphate 3-kinase catalytic subunit beta isoform (Homo sapiens, UniProt P42338). The assay is described as follows: Inhibition of PI3Kbeta.
Phosphatidylinositol 4,5-bisphosphate 3-kinase catalytic subunit beta isoform, sequence (P42338 whole entry, canonical isoform): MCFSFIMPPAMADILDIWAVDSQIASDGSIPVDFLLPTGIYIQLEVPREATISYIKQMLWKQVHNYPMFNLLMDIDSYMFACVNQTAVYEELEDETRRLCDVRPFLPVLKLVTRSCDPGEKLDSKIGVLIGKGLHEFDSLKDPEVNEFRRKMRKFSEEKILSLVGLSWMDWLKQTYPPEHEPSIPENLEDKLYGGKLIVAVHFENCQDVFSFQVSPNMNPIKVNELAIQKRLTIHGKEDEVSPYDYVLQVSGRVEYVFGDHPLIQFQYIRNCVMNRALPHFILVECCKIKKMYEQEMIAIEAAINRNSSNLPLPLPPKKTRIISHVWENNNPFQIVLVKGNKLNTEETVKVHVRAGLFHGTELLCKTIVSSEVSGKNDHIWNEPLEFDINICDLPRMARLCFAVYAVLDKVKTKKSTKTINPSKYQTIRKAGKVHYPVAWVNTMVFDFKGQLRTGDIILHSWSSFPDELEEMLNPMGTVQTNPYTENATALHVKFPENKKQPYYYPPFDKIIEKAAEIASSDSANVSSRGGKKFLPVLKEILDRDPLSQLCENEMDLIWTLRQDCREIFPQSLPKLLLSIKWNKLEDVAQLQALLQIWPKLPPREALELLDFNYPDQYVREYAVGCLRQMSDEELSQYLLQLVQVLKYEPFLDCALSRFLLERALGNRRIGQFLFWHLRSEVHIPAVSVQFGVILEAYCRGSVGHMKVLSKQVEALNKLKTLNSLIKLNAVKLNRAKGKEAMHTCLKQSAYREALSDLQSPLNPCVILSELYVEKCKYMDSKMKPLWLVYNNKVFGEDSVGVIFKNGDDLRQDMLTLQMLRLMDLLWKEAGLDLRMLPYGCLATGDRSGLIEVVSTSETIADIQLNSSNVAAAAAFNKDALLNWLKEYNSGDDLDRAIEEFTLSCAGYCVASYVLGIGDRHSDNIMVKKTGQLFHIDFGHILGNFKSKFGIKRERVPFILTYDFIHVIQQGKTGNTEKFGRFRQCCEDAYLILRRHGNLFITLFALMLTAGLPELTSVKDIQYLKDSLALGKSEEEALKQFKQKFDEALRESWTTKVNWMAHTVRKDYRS

Molecules are shown by their SMILES.

Consider `COC(=O)N1CCC(n2ncc3c(N4CCOCC4)nc(-c4ccc(NC(=O)Nc5cccnc5)cc4)nc32)CC1`, for which the Ratio IC50 in assay [1] is 175.
In the case of `O=C(Nc1ccc(-c2nc(N3CCOCC3)c3cnn(CC(F)(F)F)c3n2)cc1)Nc1cccnc1`, it took 0.23 nM to reach half-maximal inhibition in assay [2] (IC50). Moreover, the Ratio IC50 in assay [1] worked out at 43.
On to `CCNC(=O)Nc1ccc(-c2nc(N3CC4CCC(C3)O4)c3cnn(C4CCN(C(=O)OC)CC4)c3n2)cc1`, for which the IC50 in assay [2] stood at 0.2 nM; in the assay on LNCaP it was 9 nM. In assay [1], the Ratio IC50 was 26700.
As for `CCNC(=O)Nc1ccc(-c2nc(N3CCOC[C@H]3C)c3cnn(C4CCN(C(=O)OCC)CC4)c3n2)cc1`, in assay [1], the Ratio IC50 was determined as 4980.
Turning to `CCNC(=O)Nc1ccc(-c2nc(N3C4CCC3COC4)c3cnn(C4CCN(C(=O)OC)CC4)c3n2)cc1`, in assay [1], the Ratio IC50 was determined as 8890.
Compound `O=C(NCCF)Nc1ccc(-c2nc(N3CC4CCC(C3)O4)c3cnn(CC(F)(F)F)c3n2)cc1` returned an IC50 in assay [2] of 0.23 nM. Further, in assay [1], the Ratio IC50 was determined as 11900.
For the compound `CNC(=O)Nc1ccc(-c2nc(N3CCOCC3)c3cnn(CC(F)(F)F)c3n2)cc1`, the Ratio IC50 in assay [1] worked out at 194.
Take `CCOC(=O)N1CCC(n2ncc3c(N4CCOC[C@H]4C)nc(-c4ccc(NC(=O)NCCF)cc4)nc32)CC1`: 1.2 nM corresponded to half-maximal inhibition in assay [2] (IC50). Also, the Ratio IC50 in assay [1] stood at 3670.
For `CCNC(=O)Nc1ccc(-c2nc(N3CCOC[C@@H]3C)c3cnn(C4CCN(C(=O)OCC)CC4)c3n2)cc1` the same measures were 1.8 nM and 307.
`CNC(=O)Nc1ccc(-c2nc(N3CC4CCC(C3)O4)c3cnn(C4CCN(C(=O)OC)CC4)c3n2)cc1` returned a concentration for half-maximal inhibition (IC50) in assay [2] of 0.22 nM. Also, the Ratio IC50 in assay [1] was 8010.
For `CNC(=O)Nc1ccc(-c2nc(N3C4CCC3COC4)c3cnn(CC(F)(F)F)c3n2)cc1`, in assay [1], the Ratio IC50 was 2420.
As for `CCNC(=O)Nc1ccc(-c2nc(N3CCOCC3)c3cnn(C4CCN(C(=O)OCC)CC4)c3n2)cc1`, 0.17 nM corresponded to half-maximal inhibition in assay [2] (IC50). Also, the Ratio IC50 in assay [1] is 4140.
For `CNC(=O)Nc1ccc(-c2nc(N3CCOC(C)C3)c3cnn(C4CCN(C(=O)OC)CC4)c3n2)cc1` (stereo unspecified) the same measures were 2.3 nM and 116.
On to `O=C(Nc1ccc(-c2nc(N3C[C@H]4C[C@@H]3CO4)c3cnn(CC(F)(F)F)c3n2)cc1)Nc1cccnc1`, for which the Ratio IC50 in assay [1] was determined as 114.
`O=C(Nc1ccc(-c2nc(N3C[C@@H]4C[C@H]3CO4)c3cnn(CC(F)(F)F)c3n2)cc1)NC1CC1`: in assay [2], the IC50 turned out to be 1.9 nM. Also, the Ratio IC50 in assay [1] is 2170.
`O=C(NCCF)Nc1ccc(-c2nc(N3CCOCC3)c3cnn(CC(F)(F)F)c3n2)cc1`: in assay [1], the Ratio IC50 stood at 524.
Regarding `CNC(=O)Nc1ccc(-c2nc(N3CC4CCC(C3)O4)c3cnn(CC(F)(F)F)c3n2)cc1`, the IC50 in assay [2] stood at 0.5 nM. Besides, in assay [1], the Ratio IC50 was determined as 3230.
For `CCOC(=O)N1CCC(n2ncc3c(N4CCOC[C@H]4C)nc(-c4ccc(NC(=O)Nc5ccncc5)cc4)nc32)CC1`, the Ratio IC50 in assay [1] was found to be 1850.
`O=C(Nc1ccc(-c2nc(N3C[C@@H]4C[C@H]3CO4)c3cnn(CC(F)(F)F)c3n2)cc1)Nc1cccnc1` registered an IC50 in assay [2] of 1.2 nM. Further, the Ratio IC50 in assay [1] amounted to 482.
The matching figures for `COC(=O)N1CCC(n2ncc3c(N4C5CCC4COC5)nc(-c4ccc(NC(=O)Nc5cccnc5)cc4)nc32)CC1`: 0.16 nM and 11100.
For `O=C(Nc1ccc(-c2nc(N3CC4CCC(C3)O4)c3cnn(CC(F)(F)F)c3n2)cc1)Nc1cccnc1`, the half-maximal inhibitory concentration (IC50) in assay [2] stood at 0.19 nM. For the same compound, the Ratio IC50 in assay [1] worked out at 1820.
On to `O=C(Nc1ccc(-c2nc(N3C[C@H]4C[C@@H]3CO4)c3cnn(CC(F)(F)F)c3n2)cc1)NC1CC1`, for which, in assay [1], the Ratio IC50 was found to be 179.
As for `COC(=O)N1CCC(n2ncc3c(N4CC5CCC(C4)O5)nc(-c4ccc(NC(=O)NC5CC5)cc4)nc32)CC1`, the IC50 in assay [2] is 0.62 nM; in assay [3], 4320 nM; in assay [4] it was 2630 nM; in assay [5], greater than 10000 nM. The Ratio IC50 in assay [1] came to 6910.
Consider `CCNC(=O)Nc1ccc(-c2nc(N3CCOC(C)C3)c3cnn(C4CCN(C(=O)OC)CC4)c3n2)cc1` (stereo unspecified), for which the IC50 in assay [2] came out at 1.9 nM. Besides, the Ratio IC50 in assay [1] turned out to be 360.
With `CNC(=O)Nc1ccc(-c2nc(N3C[C@@H]4C[C@H]3CO4)c3cnn(CC(F)(F)F)c3n2)cc1`, in assay [1], the Ratio IC50 is 380.
Turning to `CNC(=O)Nc1ccc(-c2nc(N3CC4CCC(C3)O4)c3cnn(C4CCN(Cc5cccnc5)CC4)c3n2)cc1`, in assay [2], 0.48 nM corresponded to half-maximal inhibition (IC50). Besides, the Ratio IC50 in assay [1] is 1410.
In assay [2], `CCOC(=O)N1CCC(n2ncc3c(N4CCOC[C@@H]4C)nc(-c4ccc(NC(=O)Nc5ccncc5)cc4)nc32)CC1` showed an IC50 of 0.58 nM. Besides, in assay [1], the Ratio IC50 was 32.
For `CCOC(=O)N1CCC(n2ncc3c(N4CCOC[C@@H]4C)nc(-c4ccc(NC(=O)NCCF)cc4)nc32)CC1` the same measures were 1.8 nM and 289.
With `O=C(Nc1ccc(-c2nc(N3C4CCC3COC4)c3cnn(CC(F)(F)F)c3n2)cc1)Nc1cccnc1`, in assay [1], the Ratio IC50 turned out to be 1140.
For the compound `COC(=O)N1CCC(n2ncc3c(N4CC5CCC(C4)O5)nc(-c4ccc(NC(=O)Nc5cccnc5)cc4)nc32)CC1`, the IC50 in assay [2] came out at 0.11 nM. For the same compound, in assay [1], the Ratio IC50 turned out to be 5580.
On to `CNC(=O)Nc1ccc(-c2nc(N3C[C@H]4C[C@@H]3CO4)c3cnn(CC(F)(F)F)c3n2)cc1`, for which the Ratio IC50 in assay [1] was 51.
Same read-out and setting: with `CNC(=O)Nc1ccc(-c2nc(N3C4CCC3COC4)c3cnn(C4CCN(C(=O)OC)CC4)c3n2)cc1` the figure was 19400.
Still for that read-out and setting: for `COC(=O)N1CCC(n2ncc3c(N4CCOC(C)C4)nc(-c4ccc(NC(=O)Nc5cccnc5)cc4)nc32)CC1` (stereo unspecified) the value was 135.

The record behind these values is ChEMBL document CHEMBL1154707, “Morpholine derivatives greatly enhance the selectivity of mammalian target of rapamycin (mTOR) inhibitors” (J Med Chem, 2009).
